Assay results as given in patent US20260317320A1, “C5AR1 ANTAGONISTS AND USES THEREOF” (Vanqua Bio, Inc., priority 2022, published 2026).

Each compound was assayed against T1, complement C5a receptor 1 (C5aR1) (Homo sapiens, UniProt P21730) (assay: β-arrestin recruitment via C5aR1 activation in live CHO-K1 cells (PathHunter), antagonist mode). Details: not given; call rule not given here.
T1 construct: β-galactosidase fragment (PathHunter enzyme complementation); host or cells: CHO-K1 (PathHunter CHO-K1 C5aR1 β-arrestin cell line)
T1 sequence (P21730 1-350): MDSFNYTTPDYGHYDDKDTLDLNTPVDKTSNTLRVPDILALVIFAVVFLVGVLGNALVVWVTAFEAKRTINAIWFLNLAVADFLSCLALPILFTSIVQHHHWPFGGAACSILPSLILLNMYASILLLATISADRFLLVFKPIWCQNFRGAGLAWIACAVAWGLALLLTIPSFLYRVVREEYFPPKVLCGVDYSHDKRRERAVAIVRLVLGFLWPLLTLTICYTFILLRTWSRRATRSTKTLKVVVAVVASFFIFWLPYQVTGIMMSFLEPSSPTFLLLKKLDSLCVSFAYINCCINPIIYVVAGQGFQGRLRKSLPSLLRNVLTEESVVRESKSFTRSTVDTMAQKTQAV
Type: cell-based
Experimental: (§1) Exemplary compounds were evaluated for classical GPCR β-arrestin recruitment via complement C5a receptor 1 (C5aR1) activation in live CHO-K1 cells. This cell line expresses two fragments of the […] protein coupled to β-arrestin and C5aR1. Complementation of the two fragments allows for the assessment of both C5aR1 agonism and antagonism. Recombinant hC5a (EC90) was used as the competing natural agonist against disclosed compounds (more information on the expanded protocol and cell line can be found on the manufacturer's website: PathHunter® CHO-K1 C5aR1 β-arrestin cell line, DiscoverX, Catalog No. 93-0557C2). […] IC50 ranges: A: IC50≤500 nM; B: 500 nM<IC50≤5 uM; C: 5 uM<IC50≤100 uM; D: IC50>100 uM.
For Cc1ccccc1N1CCC(c2cc3nccnc3n(Cc3nccnc3C)c2=O)CC1 [compound 109, 5-((3-Methylpyrazin-2-yl)methyl)-7-(1-(o-tolyl)piperidin-4-yl)pyrido[2,3-b]pyrazin-6(5H)-one], the IC50 was 0.5 to 5 µM.

Same assay, conditions: antagonist mode; recombinant hC5a (EC90) as competing natural agonist; live CHO-K1 cells; read-out: [Antagonist] B-arrestin2 recruitment: Average IC50
With Cc1cccc(F)c1N1CCC(c2cc3nccnc3n([C@@H]3CCCc4cccnc43)c2=O)CC1 [40a, (R)-7-(1-(2-Fluoro-6-methylphenyl)piperidin-4-yl)-5-(5,6,7,8-tetrahydroquinolin-8-yl)pyrido[2,3-b]pyrazin-6(5H)-one] the IC50 was 5 to 100 µM. For Cc1cccc(F)c1N1CCC(c2cc3nccnc3n([C@H]3CCCc4cccnc43)c2=O)CC1 [40b, (S)-7-(1-(2-Fluoro-6-methylphenyl)piperidin-4-yl)-5-(5,6,7,8-tetrahydroquinolin-8-yl)pyrido[2,3-b]pyrazin-6(5H)-one], the IC50 was over 100 µM. Compound Cc1cnc2cc(N3CCC(c4c(C)cccc4F)CC3)c(=O)n(Cc3ncccc3C(F)(F)F)c2n1 [compound 101, 7-(4-(2-Fluoro-6-methylphenyl)piperidin-1-yl)-3-methyl-5-((3-(trifluoromethyl)pyridin-2-yl)methyl)pyrido[2,3-b]pyrazin-6(5H)-one] has an IC50 of 0.5 to 5 µM. With Cc1ncc2cc(C3CCN(c4c(C)cccc4F)CC3)c(=O)n(Cc3ncccc3OC(F)(F)F)c2n1 [compound 102, 6-(1-(2-Fluoro-6-methylphenyl)piperidin-4-yl)-2-methyl-8-((3-(trifluoromethoxy)pyridin-2-yl)methyl)pyrido[2,3-d]pyrimidin-7(8H)-one] the IC50 was under 0.5 µM. In the case of Cc1cnc2c(C)c(C3CCN(c4c(C)cccc4F)CC3)c(=O)n(Cc3nccnc3C)c2n1 [compound 103, 7-(1-(2-Fluoro-6-methylphenyl)piperidin-4-yl)-3,8-dimethyl-5-((3-methylpyrazin-2-yl)methyl)pyrido[2,3-b]pyrazin-6(5H)-one], the IC50 is reported as 0.5 to 5 µM. Cc1cnc2cc(N3CCN(c4c(C)cccc4F)CC3)c(=O)n(Cc3nccnc3C)c2n1 [compound 104, 7-(4-(2-Fluoro-6-methylphenyl)piperazin-1-yl)-3-methyl-5-((3-methylpyrazin-2-yl)methyl)pyrido[2,3-b]pyrazin-6(5H)-one] showed an IC50 of 0.5 to 5 µM. For Cc1ncc2cc(C3CCN(c4c(C)cccc4F)CC3)c(=O)n(Cc3ncccc3OC(F)F)c2n1 [compound 105, 8-((3-(Difluoromethoxy)pyridin-2-yl)methyl)-6-(1-(2-fluoro-6-methylphenyl)piperidin-4-yl)-2-methylpyrido[2,3-d]pyrimidin-7(8H)-one], the IC50 was under 0.5 µM. Cc1cnc2cc(C3CCN(c4c(C)cccc4F)CC3)c(=O)n(Cc3nccnc3C)c2n1 [compound 106, 7-(1-(2-Fluoro-6-methylphenyl)piperidin-4-yl)-3-methyl-5-((3-methylpyrazin-2-yl)methyl)pyrido[2,3-b]pyrazin-6(5H)-one] was tested, and the IC50 was under 0.5 µM. Cc1ncc2cc(C3CCN(c4c(C)cccc4F)CC3)c(=O)n(Cc3nccnc3C)c2n1 [compound 107, 6-(1-(2-Fluoro-6-methylphenyl)piperidin-4-yl)-2-methyl-8-((3-methylpyrazin-2-yl)methyl)pyrido[2,3-d]pyrimidin-7(8H)-one] gave an IC50 of 0.5 to 5 µM. For Cc1nccnc1Cn1c(=O)c(C2CCN(c3ccccc3OC(F)(F)F)CC2)cc2nccnc21 [compound 108, 5-((3-Methylpyrazin-2-yl)methyl)-7-(1-(2-(trifluoromethoxy)phenyl)piperidin-4-yl)pyrido[2,3-b]pyrazin-6(5H)-one], the IC50 was 0.5 to 5 µM. Cc1ncc2cc(N3CCN(c4c(C)cccc4F)CC3)c(=O)n(Cc3ncccc3OC(F)(F)F)c2n1 [compound 110, 6-(4-(2-Fluoro-6-methylphenyl)piperazin-1-yl)-2-methyl-8-((3-(trifluoromethoxy)pyridin-2-yl)methyl)pyrido[2,3-d]pyrimidin-7(8H)-one] showed an IC50 of under 0.5 µM. Cc1nccnc1Cn1c(=O)c(C2CCN(c3ccccc3OC(F)F)CC2)cc2nccnc21 [compound 111, 7-(1-(2-(Difluoromethoxy)phenyl)piperidin-4-yl)-5-((3-methylpyrazin-2-yl)methyl)pyrido[2,3-b]pyrazin-6(5H)-one] was tested, and the IC50 was 5 to 100 µM. COc1cnc2cc(C3CCN(c4c(C)cccc4F)CC3)c(=O)n(Cc3nccnc3C)c2n1 [compound 112, 7-(1-(2-Fluoro-6-methylphenyl)piperidin-4-yl)-3-methoxy-5-((3-methylpyrazin-2-yl)methyl)pyrido[2,3-b]pyrazin-6(5H)-one] gave an IC50 of 5 to 100 µM. Cc1cnc2cc(C3CCN(c4ccnnc4C)CC3)c(=O)n(Cc3ncccc3C(F)(F)F)c2n1 [compound 113, 3-Methyl-7-(1-(3-methylpyridazin-4-yl)piperidin-4-yl)-5-((3-(trifluoromethyl)pyridin-2-yl)methyl)pyrido[2,3-b]pyrazin-6(5H)-one] was tested, and the IC50 was over 100 µM. For Cc1cnc2cc(C3CCN(c4cncnc4C)CC3)c(=O)n(Cc3ncccc3C(F)(F)F)c2n1 [compound 114, 3-Methyl-7-(1-(4-methylpyrimidin-5-yl)piperidin-4-yl)-5-((3-(trifluoromethyl)pyridin-2-yl)methyl)pyrido[2,3-b]pyrazin-6(5H)-one], the IC50 was 5 to 100 µM. With Cc1cnc2cc(C3CCN(c4nnccc4C)CC3)c(=O)n(Cc3ncccc3C(F)(F)F)c2n1 [compound 115, 3-Methyl-7-(1-(4-methylpyridazin-3-yl)piperidin-4-yl)-5-((3-(trifluoromethyl)pyridin-2-yl)methyl)pyrido[2,3-b]pyrazin-6(5H)-one] the IC50 was 0.5 to 5 µM. With Cc1cccc(F)c1N1CCC(c2cc3nccnc3n(Cc3cncnc3C(F)(F)F)c2=O)CC1 [compound 116, 7-(1-(2-Fluoro-6-methylphenyl)piperidin-4-yl)-5-((4-(trifluoromethyl)pyrimidin-5-yl)methyl)pyrido[2,3-b]pyrazin-6(5H)-one] the IC50 was 0.5 to 5 µM. Compound Cc1ncc2cc(N3CCN(c4c(C)cccc4F)CC3)c(=O)n(Cc3ncccc3OC(F)F)c2n1 [compound 117, 8-((3-(Difluoromethoxy)pyridin-2-yl)methyl)-6-(4-(2-fluoro-6-methylphenyl)piperazin-1-yl)-2-methylpyrido[2,3-d]pyrimidin-7(8H)-one] has an IC50 of 0.5 to 5 µM. Cc1ncc2cc(N3CCN(c4c(C)cccc4F)CC3)c(=O)n(Cc3ncccc3C(F)(F)F)c2n1 [compound 119, 6-(4-(2-Fluoro-6-methylphenyl)piperazin-1-yl)-2-methyl-8-((3-(trifluoromethyl)pyridin-2-yl)methyl)pyrido[2,3-d]pyrimidin-7(8H)-one] gave an IC50 of 0.5 to 5 µM. Cc1cccc(F)c1N1CCC(c2cc3nccnc3n(Cc3nccnc3C(F)F)c2=O)CC1 [compound 122, 5-((3-(Difluoromethyl)pyrazin-2-yl)methyl)-7-(1-(2-fluoro-6-methylphenyl)piperidin-4-yl)pyrido[2,3-b]pyrazin-6(5H)-one] showed an IC50 of under 0.5 µM.

Each compound was assayed against T1, complement C5a receptor 1 (C5aR1) (assay: β-arrestin recruitment via C5aR1 activation in live CHO-K1 cells (PathHunter), agonist mode). Details: not given.
Type: cell-based
Experimental: as §1
Cc1cccc(F)c1N1CCC(c2cc3nccnc3n([C@@H]3CCCc4cccnc43)c2=O)CC1 [40a, (R)-7-(1-(2-Fluoro-6-methylphenyl)piperidin-4-yl)-5-(5,6,7,8-tetrahydroquinolin-8-yl)pyrido[2,3-b]pyrazin-6(5H)-one] was tested, and the “[Agonist] B-arrestin2 recruitment: Average EC50 (nM)” value (shortened to “[Agonist] B-arrestin2 recruitment”) was “Non-Active”. In the case of Cc1cccc(F)c1N1CCC(c2cc3nccnc3n([C@H]3CCCc4cccnc43)c2=O)CC1 [40b, (S)-7-(1-(2-Fluoro-6-methylphenyl)piperidin-4-yl)-5-(5,6,7,8-tetrahydroquinolin-8-yl)pyrido[2,3-b]pyrazin-6(5H)-one], the “[Agonist] B-arrestin2 recruitment” value is reported as “Non-Active”. With Cc1ccc2c(c1)nc(C1CCN(c3c(C)cccc3F)CC1)c(=O)n2Cc1ncccc1C(F)(F)F [142B, 3-(1-(2-Fluoro-6-methylphenyl)piperidin-4-yl)-6-methyl-1-((3-(trifluoromethyl)pyridin-2-yl)methyl)quinoxalin-2(1H)-one] the “[Agonist] B-arrestin2 recruitment” value was “Non-Active”. Cc1ccc2cc([C@H]3CC[C@H](c4c(C)cccc4F)CC3)c(=O)n(Cc3nccnc3C(C)(F)F)c2n1 [compound 269, 1-{[3-(1,1-Difluoroethyl)-2-pyrazinyl]methyl}-7-methyl-3-[(1r,4r)-4-(2-fluoro-6-tolyl)cyclohexyl]-1,8-diaza-2(1H)-naphthalenone] was tested, and the “[Agonist] B-arrestin2 recruitment” value was “Non-Active”.

Same assay, conditions: at 10 μM
With Cc1cccc(F)c1[C@@H]1CC[C@H](c2cc3nccnc3n(Cc3ncccc3C(F)(F)F)c2=O)C1 [200A, 7-((1S,3R)-3-(2-Fluoro-6-methylphenyl)cyclopentyl)-5-((3-(trifluoromethyl)pyridin-2-yl)methyl)pyrido[2,3-b]pyrazin-6(5H)-one] the “[Agonist] B-arrestin2 recruitment” value was “Non-Active at 10 μM”. For Cc1cccc(F)c1[C@H]1CC[C@H](c2cc3nccnc3n(Cc3ncccc3C(F)(F)F)c2=O)C1 [200B, 7-((1S,3S)-3-(2-Fluoro-6-methylphenyl)cyclopentyl)-5-((3-(trifluoromethyl)pyridin-2-yl)methyl)pyrido[2,3-b]pyrazin-6(5H)-one], the “[Agonist] B-arrestin2 recruitment” value was “Non-Active at 10 μM”. For Cc1cnc2cc([C@H]3CC[C@H](c4c(C)ccc5c4cnn5C)CC3)c(=O)n(Cc3ncccc3C(F)(F)F)c2n1 [compound 218, 7-((1r,4r)-4-(1,5-Dimethyl-1H-indazol-4-yl)cyclohexyl)-3-methyl-5-((3-(trifluoromethyl)pyridin-2-yl)methyl)pyrido[2,3-b]pyrazin-6(5H)-one], the “[Agonist] B-arrestin2 recruitment” value was “Non-Active at 10 μM”.
